The structures appear in SMILES notation.

We go through 1 compound from patent publication US7893092B2, “Anthranilamide derivatives as insecticides” (Syngenta Crop Protection, Inc., priority 2004, dated 2011).

The subject of one series is Heliothis virescens. Kind of series: Activity against Heliothis virescens, foliar application (Example B3). The class given is in vivo. Conditions: 144 h, young soya plants sprayed, 400 ppm active ingredient, 1st instar caterpillars, 6 days, read-out: percentage reduction in the population and in the feeding damage (% activity). The procedure: Young soya plants are sprayed with an aqueous emulsion spray mixture comprising 400 ppm of active ingredient and, after the spray coating has dried on, populated with 10 caterpillars (1st instar) of Heliothis virescens and introduced into a plastic container. 6 days later, the percentage reduction in the population and in the feeding damage (% activity) are determined by comparing the number of dead caterpillars and the feeding damage between the treated and untreated plants.

Another series concerns Plutella xylostella. Kind of series: Activity against Plutella xylostella (Example B7). The class given is in vivo. The following applies: 72 h, young cabbage plants sprayed, 400 ppm active ingredient, 3rd instar caterpillars, 3 days, read-out: percentage reduction in the population and in the feeding damage (% activity). The procedure: Young cabbage plants are sprayed with an aqueous emulsion spray mixture comprising 400 ppm of active ingredient and, after the spray coating has dried on, populated with 10 caterpillars (3rd instar) of Plutella xylostella and introduced into a plastic container. 3 days later, the percentage reduction in the population and in the feeding damage (% activity) are determined by comparing the number of dead caterpillars and the feeding damage between the treated and untreated plants.

In the next series the test system is Diabrotica balteata. Description: Activity against Diabrotica balteata (Example B2). The class given is in vivo. Conditions: 144 h, maize seedlings sprayed, 400 ppm active ingredient, 2nd instar larvae, 6 days, read-out: percentage reduction in the population (% activity). The procedure: Maize seedlings are sprayed with an aqueous emulsion spray mixture comprising 400 ppm of active ingredient and, after the spray coating has dried on, populated with 10 larvae (2nd instar) of Diabrotica balteata and introduced into a plastic container. 6 days later, the percentage reduction in the population (% activity) is determined by comparing the number of dead larvae between the treated and untreated plants.

The test system of a further series is Spodoptera littoralis. Description: Activity against Spodoptera littoralis (Example B8). The following applies: 72 h, young soya plants sprayed, 400 ppm active ingredient, 1st instar caterpillars, 3 days, read-out: percentage reduction in the population and in the feeding damage (% activity). Format: in vivo. The procedure: Young soya plants are sprayed with an aqueous emulsion spray mixture comprising 400 ppm of active ingredient and, after the spray coating has dried on, populated with 10 caterpillars (1st instar) of Spodoptera littoralis and introduced into a plastic container. 3 days later, the percentage reduction in the population and in the feeding damage (% activity) are determined by comparing the number of dead caterpillars and the feeding damage between the treated and untreated plants.

The next series relates to Myzus persicae. Description: Activity against Myzus persicae, foliar application (Example B5). Format: in vivo. Conditions: pea seedlings sprayed, 400 ppm active ingredient, 20°, 3 and 6 days, read-out: percentage reduction in the population (% activity). The procedure: Pea seedlings are infected with Myzus persicae, subsequently sprayed with a spray mixture comprising 400 ppm of active ingredient and then incubated at 20°. 3 and 6 days later, the percentage reduction in the population (% activity) is determined by comparing the number of dead aphids between the treated and untreated plants.

The compound `Cc1cc(Cl)cc(C(=O)NC(C)(C)CS(C)(=O)=NC(=O)C(F)(F)F)c1NC(=O)c1cc(C(F)(F)F)nn1-c1ncccc1Cl` (stereo not drawn) [T3.1.1] yielded a melting point of 112 to 115 °C. Besides, in the series with Heliothis virescens, the inhibition at 400 ppm was greater than 80%. Moreover, the inhibition at 400 ppm in the series with Plutella xylostella is greater than 80%. The inhibition at 400 ppm in the series on Diabrotica balteata was greater than 80%. Moreover, the inhibition at 400 ppm in the series with Spodoptera littoralis is greater than 80%. The inhibition at 400 ppm with Myzus persicae is greater than 80%.

One may read the melting point as the temperature of the solid-liquid transition.
